Reference: patent US11542259B2, “Compounds for the treatment of kinase-dependent disorders” (Exelixis, Inc., priority 2018, dated 2023)

Experiments:
[1] = biological target: Met (Homo sapiens (Human), UniProt P08581); experiment: Met autophosphorylation ELISA in PC-3 cells; type: cell-based; conditions: cellular, HGF stimulated, read-out: c-Met IC50
Outline: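 Phospho-Met (panTyr) sandwich ELISA on lysates of PC-3 cells given 100 ng/mL HGF for 10 min after 1 h compound exposure (8-point curve, 0.3% DMSO) following 3 h serum starvation. Normalised to HGF-stimulated DMSO and reference-inhibitor wells; 4-parameter logistic IC50.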

[2] = biological target: Human Met (residues R974-S1390 with A1209G and V1290L) (Homo sapiens, UniProt P08581); experiment: Human Met kinase assay (33P radiometric, KinaseProfiler); type: biochemical; conditions: 10 μM ATP, read-out: c-Met IC50
Method: (§1) Kinase activity and compound inhibition were investigated using the ^33P-Phosphoryl transfer radiometric kinase assay, performed using the KinaseProfiler™ service of Eurofins Pharma Discovery Services UK Limited. Dose-response experiments were performed using nine compound concentrations in a 96-well microtiter plate. For each assay, all compounds were prepared to a 50× final assay concentration (50 μM) in 100% DMSO, then diluted in a half-log series, with the final top concentration at 1 μM. This working stock of the compound was added to the assay well as the first component in the reaction, followed by the remaining components as detailed in the following assay protocols below. The positive control wells (100% kinase activity) contain all components of the reaction including 2% DMSO (control for solvent effects), except the compound of interest. Blank wells contain all components of the reaction, with the reference inhibitor, staurosporine. This reference compound was used to abolish kinase activity and generated the 0% kinase activity base-line. IC50 values were calculated by nonlinear regression analysis using the sigmoidal dose-response (variable slope) curve fit on XLFit version 5.3 (ID Business Solutions).
Human Met (residues R974-S1390 with A1209G and V1290L, 3.4 nM) was incubated with 8 mM MOPS pH 7.0, 0.2 mM EDTA, 250 μM KKKGQEEEYVFIE (SEO ID NO. 45), 1 mM sodium orthovanadate, 5 mM […], 10 mM magnesium acetate, and 10 μM [γ-33P-ATP]. The reaction was initiated by the addition of the Mg/ATP mix. After incubation for 40 minutes at room temperature, the reaction was stopped by the addition of phosphoric acid to a concentration of 0.5%. A reaction aliquot of […] was then spotted onto a P30 filtermat and washed four times for 4 minutes in 0.425% phosphoric acid and once in methanol prior to drying and scintillation counting. Incorporated 33P was measured using the Wallac Microbeta scintillation counter (Perkin Elmer).

[3] = biological target: Human Mer (residues R557-E882 with H628Q and R794A) (Homo sapiens (Human), UniProt Q12866); experiment: Human Mer kinase assay (33P radiometric, KinaseProfiler); type: biochemical; conditions: 10 μM ATP
Chain of Human Mer (residues R557-E882 with H628Q and R794A) (Q12866 557-882, stated change not applied): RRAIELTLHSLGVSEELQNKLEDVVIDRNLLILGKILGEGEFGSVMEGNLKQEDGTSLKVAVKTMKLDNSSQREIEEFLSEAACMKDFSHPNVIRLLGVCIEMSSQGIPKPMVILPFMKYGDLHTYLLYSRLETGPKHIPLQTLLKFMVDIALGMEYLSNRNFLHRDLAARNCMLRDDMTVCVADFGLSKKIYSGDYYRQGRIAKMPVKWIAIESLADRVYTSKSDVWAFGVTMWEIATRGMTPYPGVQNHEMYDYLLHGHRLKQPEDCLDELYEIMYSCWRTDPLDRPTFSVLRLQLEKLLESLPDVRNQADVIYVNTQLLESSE
Method: as §1
Human Mer (residues R557-E882 with H628Q and R794A, 0.7 nM) was incubated with 8 mM MOPS pH 7.0, 0.2 mM EDTA, 30 mM NaCl, 250 μM GGMEDIYFEFMGGKKK (SEO ID NO. 44). 10 mM magnesium acetate, and 10 μM [γ-^33P-ATP]. The reaction was initiated by the addition of the Mg/ATP mix. After incubation for 40 minutes at room temperature, the reaction was stopped by the addition of phosphoric acid to a concentration of 0.5%. A reaction aliquot of 10 μL was then spotted onto a P30 filtermat and washed four times for 4 minutes in 0.425% phosphoric acid and once in methanol prior to drying and scintillation counting. Incorporated ^33P was measured using the Wallac Microbeta scintillation counter (Perkin Elmer).

[4] = biological target: Human Axl (residues H473-A894 with Q764R) (Homo sapiens (Human), UniProt P30530, Q764R); experiment: Human AXL kinase assay (33P radiometric, KinaseProfiler); type: biochemical; conditions: 10 μM ATP
Chain of Human Axl (residues H473-A894 with Q764R) (P30530 473-894 Q764R): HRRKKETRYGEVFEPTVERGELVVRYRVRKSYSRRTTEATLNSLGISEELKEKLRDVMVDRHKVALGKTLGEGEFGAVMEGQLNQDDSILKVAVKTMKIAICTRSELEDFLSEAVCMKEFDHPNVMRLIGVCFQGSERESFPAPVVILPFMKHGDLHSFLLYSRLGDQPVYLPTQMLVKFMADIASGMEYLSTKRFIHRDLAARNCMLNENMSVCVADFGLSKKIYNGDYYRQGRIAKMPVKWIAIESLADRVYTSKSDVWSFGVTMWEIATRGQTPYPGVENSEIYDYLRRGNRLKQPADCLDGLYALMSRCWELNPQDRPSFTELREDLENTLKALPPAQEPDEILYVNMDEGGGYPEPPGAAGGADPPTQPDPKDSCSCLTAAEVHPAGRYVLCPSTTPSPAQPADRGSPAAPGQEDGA
Method: as §1
Human Axl (residues H473-A894 with Q764R, 161 nM) was incubated with 8 mM MOPS pH 7.0, 0.2 mM EDTA, 250 μM KKSRGDYMTMQIG (SEO ID NO. 43) 10 mM magnesium acetate and 10 μM [γ-33P-ATP]. The reaction was initiated by the addition of the Mg/ATP mix. After incubation for 40 minutes at room temperature, the reaction was stopped by the addition of phosphoric acid to a concentration of 0.5%. A reaction aliquot of 10 μL was then spotted onto a P30 filtermat and washed four times for 4 minutes in 0.425% phosphoric acid and once in methanol prior to drying and scintillation counting. Incorporated ^33P was measured using the Wallac Microbeta scintillation counter (Perkin Elmer).

Chain of Met (P08581 25-1390): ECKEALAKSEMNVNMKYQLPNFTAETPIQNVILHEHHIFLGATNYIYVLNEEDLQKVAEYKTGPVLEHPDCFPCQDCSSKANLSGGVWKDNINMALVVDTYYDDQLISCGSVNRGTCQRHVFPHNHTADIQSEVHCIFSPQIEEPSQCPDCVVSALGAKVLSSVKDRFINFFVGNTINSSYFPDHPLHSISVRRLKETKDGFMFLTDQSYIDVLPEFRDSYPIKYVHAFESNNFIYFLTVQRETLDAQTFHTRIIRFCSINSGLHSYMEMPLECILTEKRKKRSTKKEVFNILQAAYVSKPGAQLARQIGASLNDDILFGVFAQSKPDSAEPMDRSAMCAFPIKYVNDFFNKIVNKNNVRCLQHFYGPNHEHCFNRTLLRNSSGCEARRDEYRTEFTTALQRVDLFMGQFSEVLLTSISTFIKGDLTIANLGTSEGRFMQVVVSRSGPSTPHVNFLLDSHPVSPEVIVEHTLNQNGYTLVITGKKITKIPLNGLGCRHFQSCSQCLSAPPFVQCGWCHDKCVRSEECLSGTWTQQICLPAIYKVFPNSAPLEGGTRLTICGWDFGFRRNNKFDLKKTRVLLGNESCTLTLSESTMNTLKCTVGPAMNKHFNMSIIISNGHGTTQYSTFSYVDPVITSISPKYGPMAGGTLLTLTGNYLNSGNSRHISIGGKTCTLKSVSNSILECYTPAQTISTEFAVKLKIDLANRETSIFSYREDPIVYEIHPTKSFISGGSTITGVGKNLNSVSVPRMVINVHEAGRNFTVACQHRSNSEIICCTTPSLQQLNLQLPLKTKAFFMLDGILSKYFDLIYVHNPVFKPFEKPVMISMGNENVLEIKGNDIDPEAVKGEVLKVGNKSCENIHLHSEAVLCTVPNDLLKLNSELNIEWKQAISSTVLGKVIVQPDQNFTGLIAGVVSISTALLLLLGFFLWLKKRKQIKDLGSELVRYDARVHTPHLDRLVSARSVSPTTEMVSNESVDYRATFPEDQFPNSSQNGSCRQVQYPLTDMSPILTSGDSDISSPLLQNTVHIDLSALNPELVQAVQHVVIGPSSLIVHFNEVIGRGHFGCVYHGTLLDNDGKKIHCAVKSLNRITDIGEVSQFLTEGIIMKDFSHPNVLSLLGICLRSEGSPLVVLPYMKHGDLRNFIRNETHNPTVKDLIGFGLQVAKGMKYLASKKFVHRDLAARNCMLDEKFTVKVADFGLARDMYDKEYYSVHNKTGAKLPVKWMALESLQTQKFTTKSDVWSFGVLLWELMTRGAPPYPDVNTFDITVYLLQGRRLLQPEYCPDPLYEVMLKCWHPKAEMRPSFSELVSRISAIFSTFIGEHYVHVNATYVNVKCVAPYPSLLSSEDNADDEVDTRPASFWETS

| Compound | IC50 [1] [nM] | IC50 [2] [nM] | IC50 [3] [nM] | IC50 [4] [nM] |
| --- | --- | --- | --- | --- |
| COC(=O)c1cc2c(Oc3ccc(NC(=O)C4(C(=O)Nc5ccc(F)cc5)CC4)cc3)ccnc2cc1OC [Compound 5, methyl 4-[4-[[1-[(4-fluorophenyl)carbamoyl]-cyclopropanecarbonyl]amino]-phenoxy]-7-methoxyquinoline-6-carboxylate] | 10 to 100 | ≤ 10 | ≤ 10 | 10 to 100 |
| COc1cc2nccc(Oc3ccc(NC(=O)C4(C(=O)Nc5ccc(F)cc5)CC4)cc3)c2cc1C(N)=O [Compound 7, 1-N-[4-(6-carbamoyl-7-methoxyquinolin-4-yl)oxyphenyl]-1-N′-(4-fluorophenyl)cyclopropane-1,1-dicarboxamide] | ≤ 10 | ≤ 10 | ≤ 10 | – |
| CNC(=O)c1cc2c(Oc3ccc(NC(=O)C4(C(=O)Nc5ccc(F)cc5)CC4)cc3)ccnc2cc1OC [Compound 8, 1-N′-(4-fluorophenyl)-1-N-[4-[7-methoxy-6-(methylcarbamoyl)quinolin-4-yl]oxyphenyl]cyclopropane-1,1-dicarboxamide] | 10 to 100 | ≤ 10 | ≤ 10 | – |
| CCNC(=O)c1cc2c(Oc3ccc(NC(=O)C4(C(=O)Nc5ccc(F)cc5)CC4)cc3)ccnc2cc1OC [Compound 9, 1-N-[4-[6-(ethylcarbamoyl)-7-methoxyquinolin-4-yl]oxyphenyl]-1-N′-(4-fluorophenyl)cyclopropane-1,1-dicarboxamide] | 10 to 100 | – | – | – |
| COc1cc2nccc(Oc3ccc(NC(=O)C4(C(=O)Nc5ccc(F)cc5)CC4)cc3)c2cc1C(=O)NC1COC1 [Compound 13, 1-N′-(4-fluorophenyl)-1-N-[4-[7-methoxy-6-(oxetan-3-ylcarbamoyl)quinolin-4-yl]oxyphenyl]cyclopropane-1,1-dicarboxamide] | 10 to 100 | ≤ 10 | ≤ 10 | 10 to 100 |
| COc1cc2nccc(Oc3ccc(NC(=O)C4(C(=O)Nc5ccc(F)cc5)CC4)cc3)c2cc1C(=O)NC1CN(C)C1 [Compound 14, 1-N′-(4-fluorophenyl)-1-N-[4-[7-methoxy-6-[(1-methylazetidin-3-yl)carbamoyl]quinolin-4-yl]oxyphenyl]cyclopropane-1,1-dicarboxamide] | ≤ 10 | ≤ 10 | ≤ 10 | 10 to 100 |

Continued, values first:

| IC50 [1] [nM] | IC50 [2] [nM] | IC50 [3] [nM] | IC50 [4] [nM] | Compound |
| --- | --- | --- | --- | --- |
| 100 to 300 | 10 to 100 | ≤ 10 | 10 to 100 | COc1cc2nccc(Oc3ccc(NC(=O)C4(C(=O)Nc5ccc(F)cc5)CC4)cc3)c2cc1C(=O)N1CCC1 [Compound 15, 1-N-[4-[6-(azetidine-1-carbonyl)-7-methoxyquinolin-4-yl]oxyphenyl]-1-N′-(4-fluorophenyl)cyclopropane-1,1-dicarboxamide] |
| 100 to 300 | ≤ 10 | ≤ 10 | 10 to 100 | COc1cc2nccc(Oc3ccc(NC(=O)C4(C(=O)Nc5ccc(F)cc5)CC4)cc3)c2cc1C(=O)N1CC(O)C1 [Compound 16, 1-N′-(4-fluorophenyl)-1-N-[4-[6-(3-hydroxyazetidine-1-carbonyl)-7-methoxyquinolin-4-yl]oxyphenyl]cyclopropane-1,1-dicarboxamide] |
| 10 to 100 | – | – | – | CONC(=O)c1cc2c(Oc3ccc(NC(=O)C4(C(=O)Nc5ccc(F)cc5)CC4)cc3)ccnc2cc1OC [Compound 17, 1-N′-(4-fluorophenyl)-1-N-[4-[7-methoxy-6-(methoxycarbamoyl)quinolin-4-yl]oxyphenyl]cyclopropane-1,1-dicarboxamide] |
| ≤ 10 | ≤ 10 | ≤ 10 | – | COc1cc2nccc(Oc3ccc(NC(=O)C4(C(=O)Nc5ccc(F)cc5)CC4)cc3)c2cc1-c1ncco1 [Compound 45, 1-N′-(4-fluorophenyl)-1-N-[4-[7-methoxy-6-(1,3-oxazol-2-yl)quinolin-4-yl]oxyphenyl]cyclopropane-1,1-dicarboxamide] |
| 10 to 100 | – | – | – | COc1cc2nccc(Oc3ccc(NC(=O)C4(C(=O)Nc5ccc(F)cc5)CC4)cc3)c2cc1-c1ncc[nH]1 [Compound 191, 1-N′-(4-Fluorophenyl)-1-N-[4-[6-(1H-imidazol-2-yl)-7-methoxyquinolin-4-yl]oxyphenyl]cyclopropane-1,1-dicarboxamide] |
